Literature values in patent US5648564A, “Process for the formation, isolation and purification of comestible xanthophyll crystals from plants” (Kemin Industries, Inc., priority 1995, dated 1997).

Tests used:
rat = conditions: oral
[1] = consumption of lutein and zeaxanthin (reported jointly)

Structure (SMILES) | LD50 (rat) [mL/kg] | reduction in age-related macular degeneration [1] [%]
ClC(Cl)Cl [Chloroform] | 2.18 | 
CCOC(C)=O [Ethyl Acetate] | 11.3 | 
CC(O)CO (stereo not drawn) [Propylene Glycol, 1,2-propanediol] | 25 | 
c1ccncc1 [Pyridine] | 1.58 | 
CC1=C[C@H](O)CC(C)(C)[C@H]1/C=C/C(C)=C/C=C/C(C)=C/C=C/C=C(C)/C=C/C=C(C)/C=C/C1=C(C)C[C@@H](O)CC1(C)C [lutein] |  | 40
CC1=C(/C=C/C(C)=C/C=C/C(C)=C/C=C/C=C(C)/C=C/C=C(C)/C=C/C2=C(C)C[C@@H](O)CC2(C)C)C(C)(C)C[C@H](O)C1 [zeaxanthin] |  | 40
